Test results taken from ChEMBL document CHEMBL6114949, “Synthesis and physiological effects of new 4-aminophenol derivatives as paracetamol analogues” (Bioorg Med Chem Lett, 2025).
Calls of active or inactive are those of the source. The rule behind the calls is not given here.

What was measured:
[1] = system: Rattus norvegicus; assay: Antipyretic activity against LPS-induced polyphasic febrile response in rats assessed as suppression of rise in core body temperature at 240 mg/kg, po treated 40 mins prior to LPS addition and measured after 160 mins relative to control; format: functional; conditions: time 200 min, 3.333 h
[2] = Hepatotoxicity in zymosan-induced rat arthritis model assessed as change in hepatocyte nucleus size at 240 mg/kg, ig administered once daily for 7 days by hematoxylin-eosin staining based histological analysis; format: toxicity, organism-based, Liver; conditions: in vivo, po, 168 h, time 7 day
[3] = Hepatotoxicity in zymosan-induced rat arthritis model assessed as change in hepatocyte karyoplasm at 240 mg/kg, ig administered once daily for 7 days by hematoxylin-eosin staining based histological analysis; format: toxicity, organism-based, Liver; conditions: in vivo, po, 168 h, time 7 day
[4] = Hepatotoxicity in zymosan-induced rat arthritis model assessed as appearance of vacuoles in hepatocyte cytoplasm at 240 mg/kg, ig administered once daily for 7 days by hematoxylin-eosin staining based histological analysis; format: toxicity, organism-based, Liver; conditions: in vivo, po, 168 h, time 7 day
[5] = Hepatotoxicity in zymosan-induced rat arthritis model assessed as disruption of hepatocyte membrane at 240 mg/kg, ig administered once daily for 7 days by hematoxylin-eosin staining based histological analysis; format: toxicity, organism-based, Liver; conditions: in vivo, po, 168 h, time 7 day
[6] = Hepatotoxicity in zymosan-induced rat arthritis model assessed as change in hepatocyte cytoplasmic appearance at 240 mg/kg, ig administered once daily for 7 days by hematoxylin-eosin staining based histological analysis; format: toxicity, organism-based, Liver; conditions: in vivo, po, 168 h, time 7 day
[7] = Hepatotoxicity in zymosan-induced rat arthritis model assessed as change in shape of liver portal tracts at 240 mg/kg, ig administered once daily for 7 days by hematoxylin-eosin staining based histological analysis; format: toxicity, organism-based; conditions: in vivo, po, 168 h, time 7 day
[8] = Hepatotoxicity in zymosan-induced rat arthritis model assessed as effect on beam structure of liver at 240 mg/kg, ig administered once daily for 7 days by hematoxylin-eosin staining based histological analysis; format: toxicity, organism-based; conditions: in vivo, po, 168 h, time 7 day
[9] = Hepatotoxicity in zymosan-induced rat arthritis model assessed as effect on sinusoids arrangement at 240 mg/kg, ig administered once daily for 7 days by hematoxylin-eosin staining based histological analysis; format: toxicity, organism-based, Liver; conditions: in vivo, po, 168 h, time 7 day
[10] = system: Rattus norvegicus; assay: Antinociceptive activity in zymosan-induced rat arthritis model assessed as nociceptive response inhibition at 240 mg/kg, ig administered once daily for 7 days and measured 1 hr post-zymosan challenge on day 7 by Randall-Selitto test (reference value: -34.6%); format: functional; conditions: po, 168 h, time 7 day
[11] = system: Rattus norvegicus; assay: Antipyretic activity against LPS-induced polyphasic febrile response in rats assessed as suppression of rise in core body temperature at 240 mg/kg, po treated 40 mins prior to LPS addition and measured after 10 mins; format: functional, organism-based; conditions: time 50.0 min
[12] = Hepatotoxicity in zymosan-induced rat arthritis model assessed as change in shape of liver central veins at 240 mg/kg, ig administered once daily for 7 days by hematoxylin-eosin staining based histological analysis; format: toxicity, organism-based; conditions: in vivo, po, 168 h, time 7 day
[13] = Hepatotoxicity in zymosan-induced rat arthritis model assessed as effect on sinusoids elongation at 240 mg/kg, ig administered once daily for 7 days by hematoxylin-eosin staining based histological analysis; format: toxicity, organism-based, Liver; conditions: in vivo, po, 168 h, time 7 day
[14] = system: Rattus norvegicus; assay: Antinociceptive activity in zymosan-induced rat model of thermal nociceptive hypersensitivity assessed as nociceptive response inhibition at 240 mg/kg, ig administered once daily for 7 days and measured 1 hr post-zymosan challenge on day 7 by hot-plate test (reference value: -42.4%); format: functional; conditions: po, 168 h, time 7 day
[15] = system: Rattus norvegicus; assay: Antipyretic activity against LPS-induced polyphasic febrile response in rats assessed as suppression of rise in core body temperature at 240 mg/kg, po treated 40 mins prior to LPS addition and measured after 200 mins; format: functional, organism-based; conditions: time 240.0 min
[16] = Hepatotoxicity in zymosan-induced rat arthritis model assessed as effect on general architecture of liver at 240 mg/kg, ig administered once daily for 7 days by hematoxylin-eosin staining based histological analysis; format: toxicity, organism-based; conditions: in vivo, po, 168 h, time 7 day
[17] = Hepatotoxicity in zymosan-induced rat arthritis model assessed as change in hepatocyte shape at 240 mg/kg, ig administered once daily for 7 days by hematoxylin-eosin staining based histological analysis; format: toxicity, organism-based, Liver; conditions: in vivo, po, 168 h, time 7 day
[18] = system: Rattus norvegicus; assay: Antipyretic activity against LPS-induced polyphasic febrile response in rats assessed as change in core body temperature at 240 mg/kg, po treated 40 mins prior to LPS addition and measured after 160 mins during phase 1 (reference value: 0.85 deg C); format: functional, organism-based; conditions: time 200.0 min

SMILES: CCCCCCCCCCCCCCCC(=O)Nc1ccc(OCC(=O)NCCO)cc1
- fold change (FC) [1]: 3
- Activity [2]: Non-toxic
- Activity [3]: Non-toxic
- Activity [4]: Non-toxic
- Activity [5]: Non-toxic
- Activity [6]: Non-toxic
- Activity [7]: Non-toxic
- Activity [8]: Non-toxic
- Activity [9]: Non-toxic
- inhibition in vivo at 240 mg/kg [10]: 23.1%
- Activity [11]: Active
- Activity [12]: Non-toxic
- Activity [13]: Non-toxic
- inhibition in vivo at 240 mg/kg [14]: 29.8%
- Activity [15]: Active
- Activity [16]: Non-toxic
- Activity [17]: Non-toxic
- ΔTm [18]: 0.28 °C
